Laboratory results: patent publication US5601821A, “Immunoactive peptides and antibodies and their use in anti-allergy treatment” (National Research Development Corporation, priority 1989, dated 1997)
Where no end group is shown, it is not given here.

Legend:
[1] = system: rats experimentally sensitised to ovalbumin; assay: Serum histamine after systemic allergen (ovalbumin) challenge of sensitised, peptide-immunised rats; type: in vivo, rat
Protocol: Groups of rats (male, Wistar) were hypersensitized by subcutaneous injection of a mixture (0.5 ml) of 0.5 ml chicken egg white (200 mg protein) and 2.5 ml Bordetella pertussis (40×10^10 organisms/ml)by a well-established experimental procedure (Jasani, B. and Stanworth, D. R., Journal of Immunologlcal Methods, 30, pp. 55-68 (1979)).
Repeat subcutaneous injections of the peptide-carrier protein conjugate mixed with incomplete Freund's adjuvant (IFA) were administered at days 14 and 21.
The effect of pre- or post-sensitisation immunisation with peptide (as described in section (b) above) on the state of hypersensitivity of rats which had been experimentally sensitised to ovalbumin (according to Example 5(a) above) was determined by the following procedure; similar investigations were carried out on non-immunised groups of rats as a control.
Animals from both the immunized and control groups were bled (from the tail vein) prior to systemic allergen challenge by intrapenal injection of ovalbumin (5 mg). The animals were sacrificed 10 min. later, whereupon a further sample of blood was obtained from their hearts. The histamine levels in serum from both pre-and post-allergen challenge blood samples were determined by a standard automated spectrofluorimetric procedure; the antibody profiles of the sera being determined by ELISA (according to Example 5(c) above).

[2] = system: rat peritoneal mast cells; design: dose or concentration left out as unconfirmed; conditions: concentration range; cited from earlier work
[3] = A: immunised with peptide (PPD conjugate) before experimental sensitisation
[4] = B: immunised with peptide (PPD conjugate) after experimental sensitisation

| Substance | Histamine release (mean allergen-induced serum histamine level) [1, 3] [ng/mL] | Histamine release (mean allergen-induced serum histamine level) [1, 4] [ng/mL] | effect on allergen-induced histamine release ([1]; pre- or post-immunisation of experimentally sensitised rats) | non-cytolytic histamine release from rat peritoneal mast cells [2] |
| --- | --- | --- | --- | --- |
| F57: non-histamine releasing analogue of F49 in which the N-terminal lysine residue is replaced by glycine (GYNGSNQRFFIF-NH2) | 606 | 1159 | no significant effect |  |
| KTKGSGFF [octapeptide (sequence 497-504), human IgE Cε4 residues 497-504] |  |  |  | dose-dependent histamine release |
| KTKGSGFFVF [decapeptide (sequence 497-506), human IgE Cε4 residues 497-506] |  |  |  | dose-dependent histamine release |
| Lys-Tyr-Asn-Gly-Ser-Asn-Gln-Arg-Phe-Phe-Ile-Phe-NH2 (KYNGSNQRFFIF-NH2) [F49, histamine releasing rat ε-chain dodecapeptide] | 0 | 50 |  |  |
| RKTKGSGFF [nonapeptide (sequence 496-504), human IgE Cε4 residues 496-504] |  |  |  | dose-dependent histamine release |
